Experiments:
human hepatocytes = assay: Metabolic stability with human hepatocytes; format: in vitro ADME; conditions: 1 μM test compound, well stirred model
Description: Assay for the Determination of Metabolic Stability with Human Hepatocytes
The metabolic degradation of the test compound is assayed in a human hepatocyte suspension. Human hepatocytes (typically cryopreserved) are incubated in an appropriate buffer system (e.g. Dulbecco's modified eagle medium plus 3.5 μg glucagon/500 mL, 2.5 mg insulin/500 mL and 3.75 mg/500 mL hydrocortison) containing 5% species serum. Following a (typically) […] preincubation in an incubator (37° C., 10% CO2), 5 μl of test compound solution (80 μM; from […] stock solution in DMSO diluted 1:25 with medium) are added into 395 μl hepatocyte suspension (cell density in the range 0.25-5*10^6 cells/mL, typically 1*10^6 cells/mL; final concentration of test compound 1 μM, final DMSO concentration 0.05%). The cells are incubated for six hours (incubator, orbital shaker) and samples (25 μl) are taken at 0, 0.5, 1, 2, 4 and 6 hours. Samples are transferred into acetonitrile and pelleted by centrifugation (5 min) The supernatant is transferred to a new 96-deepwell plate, evaporated under nitrogen and resuspended. The decline of parent compound is analyzed by LC-MS/MS.
The intrinsic clearance CL_[…] is calculated as follows: CL_[…]=Dose/AUC=(C0/CD)/(AUD+clast/k)*1,000/60
(C0: initial concentration in the incubation [μM], CD: cell density of vital cells [10^6 cells/mL], AUD: area under the data [μM*h], clast: concentration of last data point [μM], k: slope of the regression line for parent decline [h^−1])
The calculated in vitro hepatic intrinsic clearance Qh can be scaled up to the intrinsic in vivo hepatic clearance and used to predict hepatic in vivo blood clearance (CL) by the use of a liver model (well stirred model): CL_[…]_INVIVO [ml/min/kg]=(CL_[…] [μL/min/10^6 cells]*hepatocellularity [10^6 cells/g liver]*liver factor [g/kg bodyweight])/1,000 CL [ml/min/kg]=CL_[…]_INVIVO [ml/min/kg]*hepatic blood flow [ml/min/kg]/(CL_[…]_INVIVO [ml/min/kg]+hepatic blood flow [ml/min/kg]) Qh [%]=CL [ml/min/kg]/hepatic blood flow [ml/min/kg])
(Hepatocellularity, human: 120*10^6 cells/g liver; liver factor, human: 25.7 g/kg bodyweight; blood flow, human: 21 ml/(min*kg))
The calculated in-vitro hepatic intrinsic clearance values of selected compounds in the metabolic stability assay with human hepatocytes described above are listed in Table 15.

[1] = Drug transport across human Caco-2 cells; format: in vitro ADME; conditions: apparent permeability coefficient, Caco-2 monolayers, pH 7.2, 37° C.; for Papp A→B at 10 µM: apical-to-basal (absorptive), read-out: PEAB; for Papp B→A at 10 µM: basal-to-apical (secretory), read-out: PEBA
Excerpt: Assay for Determination of Drug Transport Across Human Caco-2 Cells
The assay provides information on the potential of a compound to pass the cell membrane, on the extent of oral absorption as well as on whether the compound is actively transported by uptake and/or efflux transporters. For the measurement of permeability across polarized, confluent human cancer colon carcinoma cells 2 (Caco-2) cell monolayers grown on permeable filter supports are used as the in vitro absorption model.
Apparent permeability coefficients (PE) of the compounds across the Caco-2 monolayers are measured (pH 7.2, 37° C.) in apical-to-basal (AB) (absorptive) and basal-to-apical (BA) (secretory) transport direction. AB permeability (PEAB) represents drug absorption from the intestine into the blood and BA permeability (PEBA) drug secretion from the blood back into the intestine via both passive permeability as well as active transport mechanisms mediated by efflux and uptake transporters that are expressed on the Caco-2 cells. The compounds are assigned to permeability/absorption classes by comparison of the AB permeabilities with the AB permeabilities of reference compounds with known in vitro permeability and oral absorption in the human. Identical or similar permeabilities in both transport directions indicate passive permeation, vectorial permeability points to additional active transport mechanisms. […] Active transport is concentration-dependently saturable.
Caco-2 cells (1-2*10^5 cells/cm^2 area) are seeded on filter inserts (Costar transwell polycarbonate or PET filters, 0.4 μm pore size) and cultured (DMEM) for 10 to 25 days. Compounds are dissolved in appropriate solvent (like DMSO, […] stock solutions). Stock solutions are diluted with HTP-4 buffer (128.13 mM NaCl, 5.36 mM KCl, 1 mM MgSO4, 1.8 mM CaCl2, 4.17 mM NaHCO3, 1.19 mM Na2HPO4x7H2O, 0.41 mM NaH2PO4xH2O, 15 mM HEPES, 20 mM glucose, pH 7.2) to prepare the transport solutions (typically 10 μM compound, final DMSO<=0.5%). The transport solution (TL) is applied to the apical or basolateral donor side for measuring A-B or B-A permeability (3 filter replicates), respectively. The receiver side contains HTP-4 buffer supplemented with 2% BSA. Samples are collected at the start and end of experiment from the donor and at various time intervals for up to 2 hours also from the receiver side for concentration measurement by LC-MS/MS or scintillation counting. Sampled receiver volumes are replaced with fresh receiver solution.
The apparent permeability coefficients (PEAB and PEBA) of selected compounds in the Caco-2 drug transport assay described above are listed in Table 16.

[2] = biological target: Human neutrophil elastase (Homo sapiens (Human), UniProt P08246); assay: Human Neutrophil Elastase Assay; format: biochemical; conditions: substrate MeOSuc-Ala-Ala-Pro-Val-AMC 250 μM, pH 7.5
Description: The following buffers were used: Compound buffer: 100 mM Tris, 500 mM NaCl, adjusted to pH 7.5; Assay buffer: 100 mM Tris, 500 mM NaCl, adjusted to pH 7.5, containing 0.01% BSA.
Assay conditions: Test compounds were prediluted in DMSO and subsequently in compound buffer (5% DMSO final). […] After inactivation of the enzyme, fluorescence intensities were measured at 380 nm excitation and 460 nm emission wavelengths.
Each plate contains wells with a high value control (DMSO+enzyme+substrate) and wells with a low value control (DMSO+inactivated enzyme+substrate). IC50 values were estimated using a sigmoidal concentration response curve with variable slope. Means of low values were taken as 0%, means of high values as 100%.

[3] = biological target: neutrophil elastase in zymosan-stimulated human plasma (Homo sapiens (Human), UniProt P08246); assay: Neutrophil elastase inhibitory activity in human plasma; format: biochemical; conditions: human plasma from zymosan-stimulated blood
Description: Assay for the Determination of Neutrophil Elastase Inhibitory Activity in Human Plasma
Citrated blood from human healthy donors is mixed with zymosan suspension and incubated at room temperature. This leads to the stimulation of neutrophils and the release of neutrophil elastase into the plasma. The stimulated blood is centrifuged to generate the neutrophil elastase enriched plasma.
Various concentrations of the neutrophil elastase inhibitor are incubated with plasma. […] A dose response curve is generated to calculate the EC50 of the inhibitor.

[4] = Metabolic stability with human liver microsomes; format: in vitro ADME; conditions: pH 7.6; pooled human liver microsomes, 1 μM test compound, 37° C.; read-out: t1/2 INVITRO

Human neutrophil elastase, sequence (P08246 30-247): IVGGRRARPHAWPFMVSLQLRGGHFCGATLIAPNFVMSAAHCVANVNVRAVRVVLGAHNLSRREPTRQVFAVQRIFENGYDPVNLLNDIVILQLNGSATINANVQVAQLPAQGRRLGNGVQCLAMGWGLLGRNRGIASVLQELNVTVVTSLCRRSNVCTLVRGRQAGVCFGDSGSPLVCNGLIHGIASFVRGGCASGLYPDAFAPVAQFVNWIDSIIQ
neutrophil elastase in zymosan-stimulated human plasma, sequence (P08246 30-247): as above

SMILES | IC50 [2] [nM] | other results
CN1C(=O)N(c2cccc(C(F)(F)F)c2)C2=C(C(=O)CCC2)C1c1ccc(C#N)cc1-c1ccn(C)c(=O)c1 (single isomer, unassigned) [Example 20.b, 4-[3-Methyl-2,5-dioxo-1-(3-trifluoromethyl-phenyl)-1,2,3,4,5,6,7,8-octahydro-quinazolin-4-yl]-3-(1-methyl-2-oxo-1,2-dihydro-pyridin-4-yl)-benzonitrile] |  | Qh (human hepatocytes): 5%; Papp A→B at 10 µM [1]: 6.2 ×10⁻⁶ cm/s; Papp B→A at 10 µM [1]: 95 ×10⁻⁶ cm/s
CN1C(=O)N(c2cccc(C(F)(F)F)c2)C2=C(C(=O)CCC2)C1c1ccc(C#N)cc1-c1ccn(C)c(=O)c1 (centres unmarked) [Example 15.8, 4-[3-Methyl-2,5-dioxo-1-(3-trifluoromethyl-phenyl)-1,2,3,4,5,6,7,8-octahydro-quinazolin-4-yl]-3-(1-methyl-2-oxo-1,2-dihydro-pyridin-4-yl)-benzonitrile] | 1.2 | EC50 [3]: 4 nM; half-life at 1 μM [4]: > 2.17 h; Papp A→B at 10 µM [1]: 3.5 ×10⁻⁶ cm/s; Papp B→A at 10 µM [1]: 57 ×10⁻⁶ cm/s
CN1C(=O)N(c2cccc(C(F)(F)F)c2)C2=C(C(=O)CCC2)C1c1ccc(C#N)cc1-c1ccoc1 (centres unmarked) [Example 15, 3-Furan-3-yl-4-[3-methyl-2,5-dioxo-1-(3-trifluoromethyl-phenyl)-1,2,3,4,5,6,7,8-octahydro-quinazolin-4-yl]-benzonitrile] | 3.2 | 
CN1C(=O)N(c2cccc(C(F)(F)F)c2)C2=C(C(=O)CC2)C1c1ccc(C#N)cc1C(=O)N1CCn2cncc2C1 (centres unmarked) [Example 1.66] | 7.1 | 
CN(Cc1ccncc1)C(=O)c1cc(C#N)ccc1C1C2=C(CCC2=O)N(c2cccc(C(F)(F)F)c2)C(=O)N1C (centres unmarked) [Example 1.65] | 1.7 | 
CN1C(=O)N(c2cccc(C(F)(F)F)c2)C2=C(C(=O)CC2)C1c1ccc(C#N)cc1C(=O)N1CCc2nocc2C1 (centres unmarked) [Example 1.69] | 9.8 | 
CNCCN(C)C(=O)c1cc(C#N)ccc1C1C2=C(CCC2=O)N(c2cccc(C(F)(F)F)c2)C(=O)N1C (centres unmarked) [Example 4.10] | 1.4 | 
CN1C(=O)N(c2cccc(C(F)(F)F)c2)C2=C(C(=O)CC2)C1c1ccc(C#N)cc1C(=O)NCc1ccccn1 (centres unmarked) [Example 1.47] | 4.2 | 
CN1C(=O)N(c2cccc(C(F)(F)F)c2)C2=C(C(=O)CC2)C1c1ccc(C#N)cc1C(=O)N1CCNCC1 (centres unmarked) [Example 4] | 7.5 | 
CN1C(=O)N(c2cccc(C(F)(F)F)c2)C2=C(C(=O)CC2)C1c1ccc(C#N)cc1C(=O)NCc1cnco1 (centres unmarked) [Example 1.40] | 1 | 
CN1C(=O)N(c2ccnc(C(F)(F)F)c2)C2=C(C(=O)CC2)C1c1ccc(C#N)cc1-c1ccn(C)n1 (centres unmarked) [Example 17.1] | 50.2 | 
CN1C(=O)N(c2ccnc(C(F)(F)F)c2)C2=C(C(=O)CC2)C1c1ccc(C#N)cc1C1=CCN(C(=O)OC(C)(C)C)CC1 (centres unmarked) [Example 17.2, 4-{5-Cyano-2-[3-methyl-2,5-dioxo-1-(2-trifluoromethyl-pyridin-4-yl)-2,3,4,5,6,7-hexahydro-1H-cyclopentapyrimidin-4-yl]-phenyl}-3,6-dihydro-2H-pyridine-1-carboxylic acid tert-butyl ester] | 4.6 | 
CN1C(=O)N(c2cccc(C(F)(F)F)c2)C2=C(C(=O)CC2)C1c1ccc(C#N)cc1C(=O)NCCN1CCOCC1 (centres unmarked) [Example 1.76] | 4.5 | 
CN1C(=O)N(c2cccc(C(F)(F)F)c2)C2=C(C(=O)CC2)C1c1ccc(C#N)cc1C(=O)N1Cc2cnn(C)c2C1 (centres unmarked) [Example 1.67] | 4.1 | 
CN(Cc1cn[nH]c1)C(=O)c1cc(C#N)ccc1C1C2=C(CCC2=O)N(c2cccc(C(F)(F)F)c2)C(=O)N1C (centres unmarked) [Example 1.57] | < 1 | 
CC(=O)N[C@@H]1CCN(C(=O)c2cc(C#N)ccc2C2C3=C(CCC3=O)N(c3cccc(C(F)(F)F)c3)C(=O)N2C)C1 (some centres unmarked) [Example 1.84] | 1.3 | 
CN1C(=O)N(c2cccc(C(F)(F)F)c2)C2=C(C(=O)CC2)C1c1ccc(C#N)cc1C(=O)NCCF (centres unmarked) [Example 1.9] | 5.5 | 
CN(CCO)C(=O)c1cc(C#N)ccc1C1C2=C(CCC2=O)N(c2cccc(C(F)(F)F)c2)C(=O)N1C (centres unmarked) [Example 1.13] | 2.9 | 
CN1C(=O)N(c2ccnc(C(F)(F)F)c2)C2=C(C(=O)CC2)C1c1ccc(C#N)cc1C(=O)N1CCCC1 (centres unmarked) [Example 8.3] | 32.8 | 
CN1C(=O)N(c2cccc(C(F)(F)F)c2)C2=C(C(=O)CC2)C1c1ccc(C#N)cc1C(=O)NCc1cnoc1 (centres unmarked) [Example 1.42] | 1.9 | 
CN1C(=O)N(c2cccc(C(F)(F)F)c2)C2=C(C(=O)CC2)C1c1ccc(C#N)cc1C1=CCOCC1 (centres unmarked) [Example 11.11] | < 1 | 
CN(Cc1nncn1C)C(=O)c1cc(C#N)ccc1C1C2=C(CCC2=O)N(c2cccc(C(F)(F)F)c2)C(=O)N1C (centres unmarked) [Example 1.75] | 1.4 | 
CN1C(=O)N(c2cccc(C(F)(F)F)c2)C2=C(C(=O)CC2)C1c1ccc(C#N)cc1-c1ccc2occc2c1 (centres unmarked) [Example 11.15] | 16 | 
CN1C(=O)N(c2cccc(C(F)(F)F)c2)C2=C(C(=O)CC2)C1c1ccc(C#N)cc1C(=O)N1Cc2ccncc2C1 (centres unmarked) [Example 1.63] | 3.9 | 
CN1C(=O)N(c2cccc(C(F)(F)F)c2)C2=C(C(=O)CC2)C1c1ccc(C#N)cc1CNC1CCOCC1 (centres unmarked) [Example 9.3] | 2.9 | 
CN1C(=O)N(c2cccc(C(F)(F)F)c2)C2=C(C(=O)CC2)C1c1ccc(C#N)cc1C(=O)NCc1ccccc1 (centres unmarked) [Example 1.45] | 5.3 | 
COc1ccc(-c2cc(C#N)ccc2C2C3=C(CCC3=O)N(c3cccc(C(F)(F)F)c3)C(=O)N2C)cn1 (centres unmarked) [Example 11.13] | 3.9 | 
CN1C(=O)N(c2cccc(C(F)(F)F)c2)C2=C(C(=O)CC2)C1c1ccc(C#N)cc1-c1ccoc1 (centres unmarked) [Example 11, 3-Furan-3-yl-4-[3-methyl-2,5-dioxo-1-(3-trifluoromethyl-phenyl)-2,3,4,5,6,7-hexahydro-1H-cyclopentapyrimidin-4-yl]-benzonitrile] | 3.3 | 
CN1C(=O)N(c2cccc(C(F)(F)F)c2)C2=C(C(=O)CC2)C1c1ccc(C#N)cc1C1=CCN(C(=O)OC(C)(C)C)C1 (centres unmarked) [Example 11.4, 3-{5-Cyano-2-[3-methyl-2,5-dioxo-1-(3-trifluoromethyl-phenyl)-2,3,4,5,6,7-hexahydro-1H-cyclopentapyrimidin-4-yl]-phenyl}-2,5-dihydro-pyrrole-1-carboxylic acid tert-butyl ester] | 2.5 | 
